≈ marks a conversion by molar mass, not a printed value.
How the values were obtained:
[1] = metabolic stability in mouse liver microsomes; assay type: in vitro ADME; details: for half-life at 1 μM: pH 7.4, mouse liver microsomes, read-out: Half-life in mouse micro
Description: (§1) Interesting compounds were also submitted for drug-drug interaction and metabolic stability assays. Low IC50s against specific cytochrome P450 isoforms may indicate the potential for a harmful drug interaction to occur in vivo with substrates of that isoform. A lack of metabolic stability in vitro may indicate potential metabolic instability in vivo, and, therefore, a shorter half-life. Drug interaction potential was evaluated in vitro using BD Gentest (Franklin Lakes, NJ) CYP450 inhibition kits as recommended by the manufacturer. Metabolic stability assessments were conducted using in vitro liver microsomes. […] The reaction is started with the addition of 1 U/mL glucose-6-phosphate dehydrogenase G6PD. The mixture is incubated on a shaking platform at 37°C, and aliquots are taken and quenched with the addition of an equal volume of cold acetonitrile at 0, 10, 20, 30, and 60 min. Samples are centrifuged at 3700 rpm for […] at 20°C to remove debris. Sample quantification is carried out by LC/MS, and metabolic half-life is calculated by log plots of the total ion chromatograph area remaining.

[2] = system: rodent macrophage (RAW) cell line; test: cells; details: Mus musculus, Macrophage, read-out: Macrophage IC50
CYP450 2D6 = molecular target: T1, CYP450 2D6 (Homo sapiens, UniProt P10635); test: CYP450 inhibition kit (drug-drug interaction), 2D6; assay type: biochemical
T1 construct: purchased BD Gentest (Franklin Lakes, NJ)
T1 sequence (P10635 whole entry): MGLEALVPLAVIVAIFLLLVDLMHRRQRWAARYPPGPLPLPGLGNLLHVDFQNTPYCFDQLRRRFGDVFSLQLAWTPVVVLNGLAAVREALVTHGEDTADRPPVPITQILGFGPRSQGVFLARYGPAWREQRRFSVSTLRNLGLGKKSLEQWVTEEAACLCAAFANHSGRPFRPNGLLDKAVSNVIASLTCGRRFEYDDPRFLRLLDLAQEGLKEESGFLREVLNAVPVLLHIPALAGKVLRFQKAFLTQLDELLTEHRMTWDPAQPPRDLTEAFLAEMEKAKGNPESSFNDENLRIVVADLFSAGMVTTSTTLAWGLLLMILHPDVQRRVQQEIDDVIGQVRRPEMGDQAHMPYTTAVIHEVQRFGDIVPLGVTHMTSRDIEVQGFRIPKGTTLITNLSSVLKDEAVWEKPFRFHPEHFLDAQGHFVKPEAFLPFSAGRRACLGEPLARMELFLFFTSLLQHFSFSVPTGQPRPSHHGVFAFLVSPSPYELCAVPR
Description: as §1, with “Low” for “Interesting compounds were also submitted for drug-drug interaction and metabolic stability assays. Low”

[3] = system: MDR1-transfected MDCK cell monolayers; test: in vitro; details: dog, MDCK-MDR1, 2 h, 5 μM, pH 7.4
Description: (§2) For this reason, the apparent permeability of selected compounds across MDR1-transfected MDCK cell monolayers was determined. This assay is an in vitro surrogate of the blood-brain barrier.
(§3) Permeability was determined by Absorption Systems (Exton, PA). MDR1-MDCK cell monolayers were grown to confluence on collagen-coated, microporous, polycarbonate membranes in 12-well Costar Transwell plates. […] The permeability assay buffer was Hanks Balanced Salt Solution containing 10 mM HEPES and 15 mM glucose at a pH of 7.4. A known p-glycoprotein inhibitor cyclosporin A (CSA) was also added to the assay buffer at 10 μM. Bovine serum albumin (1%) was added to the receiver well. The dosing solution concentrations of the test compounds were 5.0 μM in the assay buffer. All cell monolayers were first pre-incubated for 30 minutes with assay buffer. After 30 minutes, the buffer was removed, replaced with fresh buffer, and time was recorded as 0. […] Cell monolayers were dosed on the apical side (A-to-B) or basolateral side (B-to-A) and incubated at 37°C with 5% CO2 in a humidified incubator. After 2 hours, aliquots were taken from the receiver chambers. Samples were taken from the donor chamber at 0 and 2 hours. Each determination was performed in duplicate. The lucifer yellow flux was also measured for each monolayer to ensure no damage was inflicted to the cell monolayers during the flux period. All samples were assayed by LC/MS/MS using electrospray ionization.
(§4) Apparent permeability in the apical (A-B direction), PappA-B, and percent recovery are reported. Apparent permeability is a measure of the rate of transport across the cell monolayer. Percent recovery refers to the amount of compound recoverable at the end of the assay. Low recovery may indicate non-specific binding to assay plates, instability or accumulation in the cell pellet.
(§5) The apparent permeability, Papp, and percent recovery were calculated as follows:
(§6) Papp = (dCr/dt) × Vr/(A × C0) (1)
(§7) Percent Recovery = 100 × ((Vr × Cr^final) + (Vd × Cd^final))/(Vd × […]) (2)

in vitro [4] = details: dog, MDCK-MDR1, pH 7.4
Description: as §2, §3, §4, §5, §6, §7

in vitro [5] = details: mouse

Row | Structure (SMILES) | half-life at 1 μM [1] [min] | IC50 [2] [µM] | IC50 (CYP450 2D6) [nM] | % recovery (MDCK-MDR1 permeability assay) [3] [%] | PappA-B MDCK-MDR1 [3] | Papp A→B at 2 h, 5 μM (in vitro [4]) [×10⁻⁶ cm/s] | HL in Microsomes ([1]; Figure 3, species of microsomes not given) [min] | CC50 (in vitro [5]) [µg/mL]
1 | CNCC(O)c1cc(C(F)(F)F)nc2c(C(F)(F)F)cccc12 (stereo not drawn) [WR308245] | > 60 | 40.4 | 7400 | 59 | 24 10^-6 cm/s |  |  | 
2 | CC(C)NCC(O)c1cc(C(F)(F)F)nc2c(C(F)(F)F)cccc12 (stereo not drawn) [WR308257] | > 60 | 14.2 | 1900 | 69 |  | 25 |  | 
3 | CSCCCNCC(O)c1cc(C(F)(F)F)nc2c(C(F)(F)F)cccc12 (stereo not drawn) [WR308278] | 10 | 20.9 | 1400 | 54 | 38 10^-6 cm/s |  |  | 
4 | OC(CNCCNCc1ccccc1)c1cc(C(F)(F)F)nc2c(C(F)(F)F)cccc12 (stereo not drawn) [WR308396] | > 60 | 18.1 | 700 |  | 8.4 10^-6 cm/s |  | > 60 | 8.28 (≈ 18.1 µM)

Source: article PMC2833169, “Anti-malarial activity of a non-piperidine library of next-generation quinoline methanols” (Malaria Journal, 2010)
